Results taken from the supplement of paper PMC4862054.

system: HCC1937; experiment: normalised response (% of control), CellTiter-Glo; higher = more viable cells (100 = DMSO, 0 = benzethonium chloride kill control); conditions: incubation time: 72 h
How it was run: (§1)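 Every value is a normalised signal taken at one concentration of a dilution series. Compound was placed in 384-well plates at 5 concentrations in 10-fold steps over a compound-specific 10,000-fold range, and 20 µl of breast cancer cell suspension was seeded onto it. After 72 h, CellTox Green fluorescence (485/520 nm) was measured first and CellTiter-Glo luminescence second, following 10 min at room temperature. Each plate was scaled to 0.1 % DMSO (100) and a positive kill control (0).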

| SMILES | normalised response |
| --- | --- |
| CCOC(=O)CCNc1cc(N2CCc3ccccc3CC2)nc(-c2ccccn2)n1 [GSK-J4] (10000 nM) | 49.4% |
| Cc1cc(Nc2cc(CN3CCOCC3)c3nc(C)c(Cc4ccc(Cl)cc4F)n3n2)n[nH]1 [Gandotinib] (1000 nM) | 96.7% |
| COc1cc2c(NC3CCN(C(C)C)CC3)nc(N3CCC(F)(F)CC3)nc2cc1OCCCN1CCCC1 [UNC0642] (1000 nM) | 94% |

system: BT-549; experiment: as above; conditions: incubation time: 72 h
How it was run: as §1

| SMILES | normalised response |
| --- | --- |
| CCn1c(-c2nonc2N)nc2cnc(Oc3cccc(NC(=O)c4ccc(OCCN5CCOCC5)cc4)c3)cc21 (1000 nM) | 73.1% |
| CNC(=O)c1cccc(-c2ccc3c(N4CCOC[C@@H]4C)nc(N4CCOC[C@@H]4C)nc3n2)c1 [AZD2014] (1000 nM) | 34.5% |
| Nc1cc(C(F)(F)F)c(-c2cc(N3CCOCC3)nc(N3CCOCC3)n2)cn1 [Buparlisib] (1000 nM) | 89.6% |
| CCOC(=O)CCNc1cc(N2CCc3ccccc3CC2)nc(-c2ccccn2)n1 [GSK-J4] (10000 nM) | 20.8% |
| Cc1cc(Nc2cc(CN3CCOCC3)c3nc(C)c(Cc4ccc(Cl)cc4F)n3n2)n[nH]1 [Gandotinib] (1000 nM) | 77% |
| COc1cc2c(NC3CCN(C(C)C)CC3)nc(N3CCC(F)(F)CC3)nc2cc1OCCCN1CCCC1 [UNC0642] (1000 nM) | 92.4% |

system: DU-4475; experiment: as above; conditions: incubation time: 72 h
How it was run: as §1

| SMILES | normalised response |
| --- | --- |
| CCn1c(-c2nonc2N)nc2cnc(Oc3cccc(NC(=O)c4ccc(OCCN5CCOCC5)cc4)c3)cc21 (1000 nM) | 91.8% |
| CNC(=O)c1cccc(-c2ccc3c(N4CCOC[C@@H]4C)nc(N4CCOC[C@@H]4C)nc3n2)c1 [AZD2014] (1000 nM) | 67.9% |
| Nc1cc(C(F)(F)F)c(-c2cc(N3CCOCC3)nc(N3CCOCC3)n2)cn1 [Buparlisib] (1000 nM) | 82.9% |
| CCOC(=O)CCNc1cc(N2CCc3ccccc3CC2)nc(-c2ccccn2)n1 [GSK-J4] (10000 nM) | 30.6% |
| Cc1cc(Nc2cc(CN3CCOCC3)c3nc(C)c(Cc4ccc(Cl)cc4F)n3n2)n[nH]1 [Gandotinib] (1000 nM) | 99.9% |
| COc1cc2c(NC3CCN(C(C)C)CC3)nc(N3CCC(F)(F)CC3)nc2cc1OCCCN1CCCC1 [UNC0642] (1000 nM) | 98.7% |

system: MDA-MB-436; experiment: as above; conditions: incubation time: 72 h
How it was run: as §1

| SMILES | normalised response |
| --- | --- |
| CCn1c(-c2nonc2N)nc2cnc(Oc3cccc(NC(=O)c4ccc(OCCN5CCOCC5)cc4)c3)cc21 (1000 nM) | 98.1% |
| CNC(=O)c1cccc(-c2ccc3c(N4CCOC[C@@H]4C)nc(N4CCOC[C@@H]4C)nc3n2)c1 [AZD2014] (1000 nM) | 51.6% |
| Nc1cc(C(F)(F)F)c(-c2cc(N3CCOCC3)nc(N3CCOCC3)n2)cn1 [Buparlisib] (1000 nM) | 102% |
| CCOC(=O)CCNc1cc(N2CCc3ccccc3CC2)nc(-c2ccccn2)n1 [GSK-J4] (10000 nM) | 22.8% |
| Cc1cc(Nc2cc(CN3CCOCC3)c3nc(C)c(Cc4ccc(Cl)cc4F)n3n2)n[nH]1 [Gandotinib] (1000 nM) | 86.4% |
| COc1cc2c(NC3CCN(C(C)C)CC3)nc(N3CCC(F)(F)CC3)nc2cc1OCCCN1CCCC1 [UNC0642] (1000 nM) | 90.9% |

system: HCC1143; experiment: as above; conditions: incubation time: 72 h
How it was run: as §1

| SMILES | normalised response |
| --- | --- |
| CCn1c(-c2nonc2N)nc2cnc(Oc3cccc(NC(=O)c4ccc(OCCN5CCOCC5)cc4)c3)cc21 (1000 nM) | 97.9% |
| CNC(=O)c1cccc(-c2ccc3c(N4CCOC[C@@H]4C)nc(N4CCOC[C@@H]4C)nc3n2)c1 [AZD2014] (1000 nM) | 36.9% |
| Nc1cc(C(F)(F)F)c(-c2cc(N3CCOCC3)nc(N3CCOCC3)n2)cn1 [Buparlisib] (1000 nM) | 94% |
| CCOC(=O)CCNc1cc(N2CCc3ccccc3CC2)nc(-c2ccccn2)n1 [GSK-J4] (10000 nM) | 41.2% |
| Cc1cc(Nc2cc(CN3CCOCC3)c3nc(C)c(Cc4ccc(Cl)cc4F)n3n2)n[nH]1 [Gandotinib] (1000 nM) | 88.6% |
| COc1cc2c(NC3CCN(C(C)C)CC3)nc(N3CCC(F)(F)CC3)nc2cc1OCCCN1CCCC1 [UNC0642] (1000 nM) | 91.2% |

system: SK-BR-3; experiment: as above; conditions: incubation time: 72 h
How it was run: as §1

| SMILES | normalised response |
| --- | --- |
| CCn1c(-c2nonc2N)nc2cnc(Oc3cccc(NC(=O)c4ccc(OCCN5CCOCC5)cc4)c3)cc21 (1000 nM) | 81.8% |
| CNC(=O)c1cccc(-c2ccc3c(N4CCOC[C@@H]4C)nc(N4CCOC[C@@H]4C)nc3n2)c1 [AZD2014] (1000 nM) | 24.3% |
| Nc1cc(C(F)(F)F)c(-c2cc(N3CCOCC3)nc(N3CCOCC3)n2)cn1 [Buparlisib] (1000 nM) | 84% |
| CCOC(=O)CCNc1cc(N2CCc3ccccc3CC2)nc(-c2ccccn2)n1 [GSK-J4] (10000 nM) | 57.2% |
| Cc1cc(Nc2cc(CN3CCOCC3)c3nc(C)c(Cc4ccc(Cl)cc4F)n3n2)n[nH]1 [Gandotinib] (1000 nM) | 82.4% |
| COc1cc2c(NC3CCN(C(C)C)CC3)nc(N3CCC(F)(F)CC3)nc2cc1OCCCN1CCCC1 [UNC0642] (1000 nM) | 96.4% |

system: MFM-223; experiment: as above; conditions: incubation time: 72 h
How it was run: as §1

| SMILES | normalised response |
| --- | --- |
| CCn1c(-c2nonc2N)nc2cnc(Oc3cccc(NC(=O)c4ccc(OCCN5CCOCC5)cc4)c3)cc21 (1000 nM) | 94.2% |
| CNC(=O)c1cccc(-c2ccc3c(N4CCOC[C@@H]4C)nc(N4CCOC[C@@H]4C)nc3n2)c1 [AZD2014] (1000 nM) | 33.7% |
| Nc1cc(C(F)(F)F)c(-c2cc(N3CCOCC3)nc(N3CCOCC3)n2)cn1 [Buparlisib] (1000 nM) | 53.3% |
| CCOC(=O)CCNc1cc(N2CCc3ccccc3CC2)nc(-c2ccccn2)n1 [GSK-J4] (10000 nM) | 42.3% |
| Cc1cc(Nc2cc(CN3CCOCC3)c3nc(C)c(Cc4ccc(Cl)cc4F)n3n2)n[nH]1 [Gandotinib] (1000 nM) | 69.7% |
| COc1cc2c(NC3CCN(C(C)C)CC3)nc(N3CCC(F)(F)CC3)nc2cc1OCCCN1CCCC1 [UNC0642] (1000 nM) | 91.2% |

system: CAL-51; experiment: as above; conditions: incubation time: 72 h
How it was run: as §1

| SMILES | normalised response |
| --- | --- |
| CCn1c(-c2nonc2N)nc2cnc(Oc3cccc(NC(=O)c4ccc(OCCN5CCOCC5)cc4)c3)cc21 (1000 nM) | 83.2% |
| CNC(=O)c1cccc(-c2ccc3c(N4CCOC[C@@H]4C)nc(N4CCOC[C@@H]4C)nc3n2)c1 [AZD2014] (1000 nM) | 28.8% |
| Nc1cc(C(F)(F)F)c(-c2cc(N3CCOCC3)nc(N3CCOCC3)n2)cn1 [Buparlisib] (1000 nM) | 90.4% |
| CCOC(=O)CCNc1cc(N2CCc3ccccc3CC2)nc(-c2ccccn2)n1 [GSK-J4] (10000 nM) | 12.2% |
| Cc1cc(Nc2cc(CN3CCOCC3)c3nc(C)c(Cc4ccc(Cl)cc4F)n3n2)n[nH]1 [Gandotinib] (1000 nM) | 55% |
| COc1cc2c(NC3CCN(C(C)C)CC3)nc(N3CCC(F)(F)CC3)nc2cc1OCCCN1CCCC1 [UNC0642] (1000 nM) | 108% |

system: Hs578T; experiment: as above; conditions: incubation time: 72 h
How it was run: as §1

| SMILES | normalised response |
| --- | --- |
| CCn1c(-c2nonc2N)nc2cnc(Oc3cccc(NC(=O)c4ccc(OCCN5CCOCC5)cc4)c3)cc21 (1000 nM) | 73.5% |
| CNC(=O)c1cccc(-c2ccc3c(N4CCOC[C@@H]4C)nc(N4CCOC[C@@H]4C)nc3n2)c1 [AZD2014] (1000 nM) | 43.6% |
| Nc1cc(C(F)(F)F)c(-c2cc(N3CCOCC3)nc(N3CCOCC3)n2)cn1 [Buparlisib] (1000 nM) | 91.1% |
| CCOC(=O)CCNc1cc(N2CCc3ccccc3CC2)nc(-c2ccccn2)n1 [GSK-J4] (10000 nM) | 59.3% |
| Cc1cc(Nc2cc(CN3CCOCC3)c3nc(C)c(Cc4ccc(Cl)cc4F)n3n2)n[nH]1 [Gandotinib] (1000 nM) | 86.7% |
| COc1cc2c(NC3CCN(C(C)C)CC3)nc(N3CCC(F)(F)CC3)nc2cc1OCCCN1CCCC1 [UNC0642] (1000 nM) | 100% |

system: HDQ-P1; experiment: as above; conditions: incubation time: 72 h
How it was run: as §1

| SMILES | normalised response |
| --- | --- |
| CCn1c(-c2nonc2N)nc2cnc(Oc3cccc(NC(=O)c4ccc(OCCN5CCOCC5)cc4)c3)cc21 (1000 nM) | 89.9% |
| CNC(=O)c1cccc(-c2ccc3c(N4CCOC[C@@H]4C)nc(N4CCOC[C@@H]4C)nc3n2)c1 [AZD2014] (1000 nM) | 40.2% |
| Nc1cc(C(F)(F)F)c(-c2cc(N3CCOCC3)nc(N3CCOCC3)n2)cn1 [Buparlisib] (1000 nM) | 70.9% |
| CCOC(=O)CCNc1cc(N2CCc3ccccc3CC2)nc(-c2ccccn2)n1 [GSK-J4] (10000 nM) | 56.3% |
